The source of these data is ChEMBL document CHEMBL1201862, “PubChem BioAssay data set” (2004).

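Compound exposure: 48 hours, 5 concentrations, 96-well plates. At the GI50, growth is halved.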 Calls of active or inactive are those of the source. Rule as the data show it: active = GI50 up to about 1.1 µM and inactive = higher.

Some test systems named below: SNB-19; SK-MEL-5; EKVX; TK-10; COLO 205; SW-620; U-251; CAKI-1; NCI-H460; RXF 393; SK-OV-3; M14; SR; UACC-62; OVCAR-4; SNB-75; NCI-H226; SF-268; MDA-MB-231.
Holding throughout (assay): NCI tumour cell line growth inhibition, 48 h

Regarding `O=c1cc(-c2ccccc2)oc2cc(OCCCOc3ccc4c(=O)cc(-c5ccccc5)oc4c3)ccc12`, the GI50 in the test on SNB-19, in the test with SK-MEL-5, in the test on EKVX, in the test with TK-10, with COLO 205 and with SW-620 was > 100 µM (inactive) throughout. For the same compound, the GI50 in the test with U-251, with CAKI-1, in the test with NCI-H460, with RXF 393, with SK-OV-3 and with M14 was > 100 µM (inactive) each time. Also, the GI50 with SR is > 100 µM (inactive); with UACC-62, > 100 µM (inactive); with OVCAR-4, > 100 µM (inactive); in the test with SNB-75, 47.2 µM (inactive); with NCI-H226, > 100 µM (inactive).
`CCC/C(=N\NC(=O)c1cc2ccccc2cc1O)C(CC)C(=O)CCC(=O)N(Cc1ccccc1)Cc1ccccc1` (centres undefined): the GI50 with SNB-19 was 27.7 µM (inactive); with SK-MEL-5, 23.4 µM (inactive); with EKVX, 32 µM (inactive); in the test with TK-10, > 100 µM (inactive); in the test on COLO 205, 28.5 µM (inactive); in the test on SW-620 it was 64 µM (inactive). The GI50 in the test on SF-268 is 19.7 µM (inactive); with U-251, 57 µM (inactive); in the test on CAKI-1, 46 µM (inactive); with NCI-H460, 35.6 µM (inactive); in the test on RXF 393 it was 37 µM (inactive); with SK-OV-3 it was > 100 µM (inactive). For the same compound, the GI50 was 32.7 µM (inactive) with M14; 31 µM (inactive) in the test with SR; 11.2 µM (inactive) in the test with UACC-62; 59 µM (inactive) with OVCAR-4; 9.73 µM (inactive) in the test on SNB-75; 47.3 µM (inactive) in the test with NCI-H226.
For `O=C(CCC1OCCO1)Nc1cc(NCc2ccccc2)ccc1OCc1ccccc1`, the GI50 with SNB-19 is 40.3 µM (inactive); with SK-MEL-5, 18.4 µM (inactive); in the test with EKVX, 21.2 µM (inactive); in the test with TK-10 it was 26.6 µM (inactive); in the test with COLO 205, 22.3 µM (inactive); in the test on SW-620 it was 42.1 µM (inactive). Also, the GI50 in the test with SF-268 was 63.8 µM (inactive); in the test with U-251, 37.1 µM (inactive); in the test with CAKI-1, 20.7 µM (inactive); with NCI-H460, 39.1 µM (inactive); with RXF 393, 28.8 µM (inactive); with MDA-MB-231, 42 µM (inactive). For the same compound, the GI50 in the test on SK-OV-3 was 68.5 µM (inactive); in the test with M14, 59.6 µM (inactive); in the test on SR, 27.9 µM (inactive); in the test with UACC-62 it was 28.1 µM (inactive); in the test on OVCAR-4, 31.8 µM (inactive); with SNB-75, 32.5 µM (inactive). The GI50 with NCI-H226 was 38.4 µM (inactive).
For the compound `C=C1C(OC(C)=O)CC(OC(C)=O)C2(C)C(OC(C)=O)C(OC(C)=O)C3=C(C)C(OC(=O)/C=C/c4ccccc4)CC(C(OC(C)=O)C12)C3(C)C` (centres undefined), the GI50 in the test with SNB-19 was 51.8 µM (inactive); with SK-MEL-5, > 100 µM (inactive); with TK-10, > 100 µM (inactive); in the test on COLO 205 it was > 100 µM (inactive); in the test on SW-620, > 100 µM (inactive); in the test on SF-268 it was 26.7 µM (inactive). Also, the GI50 with U-251 was 36.2 µM (inactive); in the test on CAKI-1, 33.1 µM (inactive); in the test with NCI-H460 it was > 100 µM (inactive); with RXF 393, 36.4 µM (inactive); in the test with SK-OV-3 it was 30.5 µM (inactive); in the test on M14, > 100 µM (inactive). Besides, the GI50 was > 100 µM (inactive) in the test with SR; > 100 µM (inactive) in the test on UACC-62; 16.7 µM (inactive) in the test on OVCAR-4; 15.1 µM (inactive) in the test with SNB-75; 67.3 µM (inactive) in the test with NCI-H226.
`O=c1[nH]cnc2[nH]nnc12`: the GI50 in the test on SNB-19 was 88.5 µM (inactive); in the test on SK-MEL-5, 41.5 µM (inactive); with EKVX, > 100 µM (inactive); with TK-10 it was 7.52 µM (inactive); in the test on COLO 205, 47.1 µM (inactive); with SW-620, 1.49 µM (inactive). The GI50 in the test with SF-268 was 1.06 µM (active); in the test with U-251, 34.6 µM (inactive); with CAKI-1 it was 1.25 µM (inactive); in the test on NCI-H460, 8.65 µM (inactive); with RXF 393, 2.62 µM (inactive); with SK-OV-3 it was 4.31 µM (inactive). Moreover, the GI50 in the test on M14 is 1.11 µM (active); with SR, 0.92 µM (active); with UACC-62, 0.968 µM (active); in the test with OVCAR-4 it was 4.93 µM (inactive); with SNB-75, 4.11 µM (inactive); in the test with NCI-H226, 5.6 µM (inactive).
Consider `CC1(C)OC(=O)C(c2ccsc2)C(=O)O1`, for which the GI50 with SNB-19, in the test with SK-MEL-5, in the test with EKVX, in the test on TK-10, in the test on COLO 205 and in the test with SW-620 was > 100 µM (inactive) in each case. Besides, the GI50 in the test on SF-268, in the test with U-251, in the test on CAKI-1, with NCI-H460, with RXF 393 and in the test on SK-OV-3 was > 100 µM (inactive) each time. Further, the GI50 in the test with M14, in the test on SR, in the test with UACC-62, in the test with OVCAR-4, in the test on SNB-75 and with NCI-H226 was > 100 µM (inactive) throughout.
Regarding `O=C(Nc1ccc(Cl)cc1Cl)c1c/c(=N\O)c2ccc(O)cc2o1`, the GI50 in the test on SNB-19, in the test on SK-MEL-5, with TK-10, in the test with COLO 205, in the test with SW-620 and in the test on SF-268 was > 100 µM (inactive) throughout. The GI50 in the test with U-251, with CAKI-1, with NCI-H460, with RXF 393, with SK-OV-3 and in the test on M14 was > 100 µM (inactive) throughout. Besides, the GI50 in the test with SR was > 100 µM (inactive); in the test on UACC-62 it was > 100 µM (inactive); in the test on OVCAR-4, > 100 µM (inactive); in the test with SNB-75, 30.9 µM (inactive); with NCI-H226, > 100 µM (inactive).
Consider `O=C(CC(=O)c1ccc([N+](=O)[O-])cc1)C(=O)Nc1nccs1`, for which the GI50 in the test with SNB-19, with SK-MEL-5, in the test with EKVX, in the test on TK-10, in the test with SW-620 and in the test on SF-268 was > 100 µM (inactive) in each case. In addition, the GI50 with U-251, in the test with CAKI-1, in the test with NCI-H460, with RXF 393, with SK-OV-3 and with M14 was > 100 µM (inactive) each time. The GI50 in the test on SR, with UACC-62, in the test with OVCAR-4, in the test with SNB-75 and in the test with NCI-H226 was > 100 µM (inactive) each time.
On to `CC(=O)/C=C\C(=O)NNS(=O)(=O)c1ccc(C)cc1`, for which the GI50 in the test with SNB-19, in the test on SK-MEL-5, in the test with EKVX, in the test on TK-10, in the test with COLO 205 and in the test on SW-620 was > 100 µM (inactive) in each case. Also, the GI50 in the test on SF-268, in the test on U-251, in the test on CAKI-1, in the test on NCI-H460, with RXF 393 and in the test with SK-OV-3 was > 100 µM (inactive) in each case. For the same compound, the GI50 in the test with M14, in the test with SR, with UACC-62, with OVCAR-4, in the test on SNB-75 and in the test on NCI-H226 was > 100 µM (inactive) in each case.
In the case of `CN(C)Cc1cc(/C(=C(\C#N)c2ccccc2)c2ccc(O)cc2)ccc1O`, the GI50 was 28.8 µM (inactive) in the test with SNB-19; 14.5 µM (inactive) in the test on SK-MEL-5; 23.9 µM (inactive) with EKVX; 23 µM (inactive) with TK-10; 14.5 µM (inactive) in the test with COLO 205; 21 µM (inactive) in the test with SW-620. The GI50 in the test on SF-268 was 20 µM (inactive); in the test on U-251, 17.9 µM (inactive); in the test with CAKI-1 it was 20.9 µM (inactive); in the test on NCI-H460, 19.6 µM (inactive); in the test on RXF 393 it was 3.96 µM (inactive); with SK-OV-3, 27 µM (inactive). The GI50 in the test on M14 was 10.4 µM (inactive); in the test on SR, 12.9 µM (inactive); in the test with UACC-62, 17.8 µM (inactive); with OVCAR-4, 21.5 µM (inactive); in the test with SNB-75, 17.5 µM (inactive); with NCI-H226, 21.9 µM (inactive).
For the compound `C=C(C)CCC1CC=[N+]([O-])OC1C(C)(C)C` (centres undefined), the GI50 in the test with SK-MEL-5 is 32.5 µM (inactive); in the test with EKVX it was 68.2 µM (inactive); in the test on TK-10 it was > 100 µM (inactive); in the test with COLO 205 it was 40.1 µM (inactive); in the test with SW-620, 44.5 µM (inactive); in the test on SF-268, 58.9 µM (inactive). Moreover, the GI50 with U-251 is 46.9 µM (inactive); in the test with CAKI-1, 26.2 µM (inactive); in the test with NCI-H460 it was 51.8 µM (inactive); in the test with RXF 393, 18.2 µM (inactive); in the test with MDA-MB-231, 26.8 µM (inactive); in the test with SK-OV-3 it was > 100 µM (inactive). The GI50 in the test on M14 was 21.1 µM (inactive); in the test with SR, 36.3 µM (inactive); in the test on UACC-62, 36.3 µM (inactive); in the test on SNB-75 it was 31.3 µM (inactive); in the test with NCI-H226 it was 15.5 µM (inactive).
